# According to publication PMC8427951, “Design, synthesis, and preliminary evaluation of a potential synthetic opioid rescue agent” (Journal of Biomedical Science, 2021):
# “Also recorded” adds a separate entry of the source. Read-outs that look alike come from different tables or passages of the source.
# Experiments:
# [1] = Pharmacokinetic study, plasma (IV, PO, IP); type: in vivo, C57BL/6J mice; conditions: for half-life / Tmax / bioavailability / AUC: plasma; for AUC: NCA
# Experimental: (§1) Adult male C57BL/6J mice were purchased from Jackson Laboratories (Bar Harbor, ME). The animals were housed in polyethylene cages and given food and water ad libitum. Animals were administered 29 by intravenous, oral gavage or intraperitoneal (IV, PO or IP injection). Two groups of mice (n = 3/group) were sampled three times each via the saphenous vein. Whole blood samples were collected into heparinized pipet tips, centrifuged at 4300×g for 2 min to isolate plasma and transferred onto dry ice. Plasma samples were stored at − 80 °C until processing. Separately, for brain biodistribution studies, five mice per time-point were administered 29 via the IP route and a single blood sample was collected from each animal via intracardiac puncture prior to perfusing with ice-cold saline for 5 min before removing the brain. All animal procedures were conducted in accordance with The Guide for the Care and Use of Laboratory Animals (National Academic Press, 1996) and approved by the IACUC (Institutional Animal Care and Use Committee) at the University of Kentucky and at the Rockefeller University.
# Experimental plasma samples were thawed at 37 °C for 3 min and vortex mixed. […] Samples were vortex mixed, then treated with 4× volume (60 µL) of 0.1% formic acid in methanol to precipitate proteins. The samples were vortex mixed (5 s) then centrifuged at 13,000×g for 15 min at 4 °C. The resulting supernatants were collected into amber HPLC vials fitted with 200 µL glass inserts and immediately analyzed for analyte content by LC/MS–MS.
# (§2) For the analysis of total amount of 29 in the plasma samples, calibration curve was generated with 29 drug spiked to mouse blank plasma. Calibrators (0.25–1000 ng/mL) were prepared by the addition of 5 µL of appropriate spiking solution into 100 µL blank plasma followed by vortex mixing. Quality control samples (0.75, 25, 500, 850 ng/mL) were prepared from an independent second stock in a similar fashion. For the analysis of 29 in brain tissue samples, calibration curve was generated with 29 drug spiked to blank mouse brain tissue homogenate using a calibration curve (0.5–372 ng/mL) and quality control samples (0.75, 13.3, 25, 266 ng/mL). The limit of quantitation for plasma was 0.4 ng/mL and for brain tissue 1 ng/mL.
# (§3) Analyte and internal standard contained in 4 µL sample injections were eluted from a Waters XBridge C18 (3.5µ, 4.6 × 150 mm; oven temp. 40 °C) analytical column with a 0.1% formic acid in water (Mobile Phase-A): 0.1% formic acid in acetonitrile (Mobile Phase-B) gradient. […] The 90% Mobile Phase-B was maintained for 2.5 min before returning to the initial 35% over a 0.1 min linear ramp. […] The total run time was 7.5 min. Positive-mode ESI Turbo V® source and MS gas, temperature and voltage potential settings were based on optimized parameters determined prior to analysis using infusions of 1000 ng/mL drug standards in 50:50 mobile phase mixture mixed with LC effluent for a total 0.6 mL/min flow rate. Flow-dependent parameters were: CUR = 35/ISV = 5500/TEM = 550/GS1 = 65/GS2 = 65/Horizontal probe position = 7/Vertical probe position = 0.5). […] Calibrators, quality control samples and experimental sample sequences consisted of single randomized experimental sample injections flanked by sets of blanks, and calibrators. A calibration curve was constructed by weighted (1/x^2) polynomial regression analysis of analyte concentration to analyte peak area using GraphPad Prism software (Ver 8.4.3).
# (§4) All data sets were analyzed using Phoenix WinNonlin (Certara). A 2-compartment mammillary model was simultaneously fitted to all plasma concentrations obtained from intravenous, oral, and intraperitoneal administration of 29. The oral and intraperitoneal bioavailability was also estimated. Parameters were estimated using population modeling with quasi-random parameter estimation method (QRPEM). […]
# C57BL/6J mice [2] = experiment: Hot plate assay, oxycodone-induced thermal antinociception; type: in vivo
# [3] = Brain biodistribution study after IP dosing; type: in vivo, C57BL/6J mice; conditions: male, C57BL/6J, mouse, 2 mg/kg
# Experimental: as §1
# Brains were excised and sectioned at the sagittal plane. Half of the brain from each animal was homogenized (1:1, w/v) with phosphate buffered saline. […] Proteins were precipitated by addition of 80 µL of 0.1% formic acid. Samples were vortex mixed (10 s) and stored at − 20 °C for 20 min prior to centrifugation at 13,000×g for 15 min at 4 °C. The resulting supernatants were collected into amber HPLC vials fitted with 200 µL glass inserts and immediately analyzed for analyte content by LC/MS–MS.
# as §2, §3, §4
# C57BL/6J mice [4] = experiment: Locomotor activity assay, deficits caused by KOR agonist U50,488; type: in vivo
# Experimental: These studies (in C57BL/6J mice from the Jackson Laboratory) focused on the effectiveness of 29 in preventing decreases in locomotor activity caused by the KOR agonist U50,488 (10 mg/kg, IP) over 90 min. This dose and duration of monitoring period was based on recently published studies. Mice were placed individually in rectangular transparent plastic cages (19.7 cm width × 41.3 cm length × 20.3 cm height) with bedding identical to that in the home cage. Each cage was in a photocell frame with an array of perpendicular photocell beams (SmartFrame; Kinder Scientific, Poway, CA). Beam breaks caused by the mouse were quantified through a computer interface. Mice were habituated to this apparatus for a 60-min session. Consecutive experiments in the same mice were separated by at least 72 h. Vehicle or 29 was injected 30 min prior to U50,488 (10 mg/kg). Immediately after the U50,488 injection, each mouse was placed in a locomotor activity cage for a 90-min period.
# The locomotor activity data were analyzed as beam breaks over 15-min bins. Data were analyzed with 2-way repeated measures or mixed effects ANOVAs, followed by appropriate post-hoc tests (GraphPad Prism software).
# [5] = male, C57BL/6J, mouse, IP, 2 mg/kg
# [6] = male, C57BL/6J, mouse, IV, 2 mg/kg
# [7] = male, C57BL/6J, mouse, PO, 5 mg/kg
structure (smiles),measurement,setting,value
C=C1CC[C@@]2(OCCC)[C@H]3Cc4ccc(O)c5c4[C@@]2(CCN3CC2CC2)[C@H]1O5 [Compound 29],CL2,[1]; 2-compartment model,174 mL/min/kg
same,V2,[1]; 2-compartment model,6.07 L/kg
same,V,"[1]; 2-compartment model fitted to IV, PO and IP plasma concentrations",5.36 L/kg
same,FIP (bioavailability following IP administration),"[1]; 2-compartment model, IP 2 mg/kg, 2 mg/kg",99.5%
same,"Ka,ip","[1]; 2-compartment model, intraperitoneal absorption",7.53 h⁻¹
same,"Ka,po","[1]; 2-compartment model, oral absorption",7.91 h⁻¹
same,time of measurable plasma concentrations,[1]; IP dosing,at least 6 h
same,time plasma concentrations were above the lower quantitation limit,[1]; following IV and PO dosing,2 h
same,half-life,"[1]; male, C57BL/6J, mouse, intraperitoneal, 2 mg/kg, mice, read-out: plasma half-life (converted)",54 min
same,clearance,"[1]; male, C57BL/6J, mouse, intraperitoneal, 2-compartment model fitted to IV, PO and IP plasma concentrations",202 mL/min/kg
same,Tmax,"[1]; male, C57BL/6J, mouse, intraperitoneal, PO and IP administration",≤ 10 min
same,half-life,"[1]; male, C57BL/6J, mouse, intravenous, oral, intraperitoneal, mice, read-out: plasma half-life (converted)",36 to 60 min
same,bioavailability,"[1]; male, C57BL/6J, mouse, ip, 2 mg/kg, 2-compartment model, IP 2 mg/kg, read-out: FIP (bioavailability following IP administration)",~100%
same,bioavailability,"[1]; male, C57BL/6J, mouse, po, 5 mg/kg, 2-compartment model, PO 5 mg/kg, read-out: Fpo (oral bioavailability)",~6.6%
same,Tmax,[1]; [5],7.2 min
same,AUC,[1]; [5],0.397 µM·h
same,half-life,"[1]; male, C57BL/6J, mouse, IP, 2 mg/kg, read-out: Apparent half-life, t½ (converted)",56.4 min
same,Tmax,[1]; [6],4.8 min
same,AUC,[1]; [6],0.207 µM·h
same,half-life,"[1]; male, C57BL/6J, mouse, IV, 2 mg/kg, read-out: Apparent half-life, t½ (converted)",34.8 min
same,Tmax,[1]; [7],6 min
same,AUC,[1]; [7],0.064 µM·h
same,half-life,"[1]; male, C57BL/6J, mouse, PO, 5 mg/kg, read-out: Apparent half-life, t½ (converted)",59.4 min
same,duration of MOR antagonist action (lower bound),C57BL/6J mice [2]; 0.1 mg/kg IP,at least 240 min
same,duration of action (upper bound),C57BL/6J mice [2]; 0.1 mg/kg IP,less than 24 h
same,prevention of oxycodone-induced antinociception,"C57BL/6J mice [2]; 29 0.1 mg/kg IP, 30 min before oxycodone 5.6 mg/kg IP",fully effective; also recorded: complete prevention
same,prevention of peak antinociceptive effects of oxycodone (time course),"C57BL/6J mice [2]; 29 0.1 mg/kg IP, pretreatment 15, 30, 120 and 240 min before oxycodone 5.6 mg/kg, measured 15 min after oxycodone",significantly prevent
same,prevention of oxycodone-induced antinociception (dose-dependence),"C57BL/6J mice [2]; 29 0.01–0.1 mg/kg IP, 30 min before oxycodone 5.6 mg/kg IP",dose-dependently; also recorded: dose-dependent prevention
same,onset of antagonist action,"C57BL/6J mice [2]; after IP injection, 0.1 mg/kg",≤ 15 min
same,half-life,"[3]; brain, ip, IP dosing, brain, mice, read-out: apparent terminal half-life in the brain",~80 min
same,Tmax,"[3]; brain, ip, IP dosing, brain, read-out: Tmax in brain (converted)",~20 min
same,half-life,"[3]; brain, ip, IP, brain, read-out: Apparent half-life, t½ (converted)",80.4 min
same,Tmax,"[3]; brain, ip, IP, brain, read-out: Tmax",19.2 min
same,Kp,"[3]; brain, ip, read-out: partition coefficient, Kp,brain",1.6
same,half-life,"[3]; plasma, ip, IP dosing, plasma, read-out: apparent terminal half-life in plasma",55 min
same,AUC,"[3]; IP, brain, NCA",0.634 µM·h
same,"blockade of locomotor effects of U50,488","C57BL/6J mice [4]; 29 0.1 mg/kg IP, 30 min before U50,488 10 mg/kg",ineffective; also recorded: did not cause any apparent blockade
same,"blockade of locomotor depressant effects of U50,488","C57BL/6J mice [4]; 29 1 mg/kg IP, 30 min before U50,488 10 mg/kg",did block the locomotor depressant effects; also recorded: able to prevent locomotor deficits
same,effect on locomotor activity alone,"C57BL/6J mice [4]; 29 1 mg/kg alone, compared to a vehicle injection",did not cause significant effects on locomotor activity
"COc1ccc2c3c1O[C@H]1C(=O)CC[C@@]4(O)[C@@H](C2)N(C)CC[C@]314 [Oxycodone, oxycodone, reference compound]",time of peak effects after injection,C57BL/6J mice [2]; oxycodone 5.6 mg/kg IP,15 min
same,antinociceptive effect,"C57BL/6J mice [2]; oxycodone 5.6 mg/kg IP, 30 min after vehicle pretreatment",near-maximal antinociceptive effect
